Assay results: patent publication US10414811B2, “Protease-resistant lipidated GLP-1 analogs” (MEDIMMUNE LIMITED, priority 2015, dated 2019)
Like-named read-outs stand apart in the source and are kept apart here. Numbered stars: 1 amine (or outer) side, 2 acyl side, 3 side chain; on linkers, the order of the positions; unused ones are H or OH. Square brackets hold non-standard residues; d marks the D form. Side chains are listed from the residue outwards. Peptide text beside a SMILES is read from it. * marks the point of attachment. C18 diacid = O=C(O)CCCCCCCCCCCCCCCCC(=O)*; γGlu = O=C(O)[C@H](CCC(=O)[*:2])N[*:1]; αMeF = C[C@](N)(Cc1ccccc1)C(=O)O; αMeK = C[C@](N)(CCCCN)C(=O)O; αMeS = C[C@](N)(CO)C(=O)O; AEEA = NCCOCCOCC(=O)O; Aib = CC(C)(N)C(=O)O

Tests used:
[1] = biological target: T1, human glucose-dependent insulinotropic peptide receptor (GIPR) (Homo sapiens, UniProt P48546); assay: cAMP assay, human GIPR cells; format: cell-based; details: cAMP assay
T1 construct: expressed in transfected cells
T1 sequence (P48546 22-466): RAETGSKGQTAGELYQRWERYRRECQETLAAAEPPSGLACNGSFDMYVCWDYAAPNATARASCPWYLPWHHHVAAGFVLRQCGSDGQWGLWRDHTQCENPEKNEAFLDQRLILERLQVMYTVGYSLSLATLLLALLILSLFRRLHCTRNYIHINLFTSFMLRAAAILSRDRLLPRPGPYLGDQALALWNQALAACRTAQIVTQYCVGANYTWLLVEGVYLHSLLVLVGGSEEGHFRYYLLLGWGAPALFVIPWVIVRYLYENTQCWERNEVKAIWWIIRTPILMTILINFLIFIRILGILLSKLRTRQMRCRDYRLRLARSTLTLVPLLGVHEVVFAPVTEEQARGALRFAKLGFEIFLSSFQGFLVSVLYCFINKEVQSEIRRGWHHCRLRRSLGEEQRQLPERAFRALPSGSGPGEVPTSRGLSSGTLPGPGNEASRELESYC
Method in brief: (§1)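 Peptide-stimulated cAMP measured by two-step HTRF after a 30 min room-temperature incubation with receptor-expressing cells (hGLP-1R, hGIPR at 1×10^5 cells/ml; hGCGR at 2×10^5 cells/ml). Duplicate dilutions; EC50 from 4-parameter logistic fit of % Delta F.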

Neprilysin = biological target: T2, Neprilysin (Homo sapiens, UniProt P08473); assay: Proteolytic resistance to neprilysin (% remaining peptide, RP-HPLC AUC); format: in vitro ADME; details: 37° C., pH 8.3; for remaining at 0.5 h / remaining at 1 h / remaining at 2 h / remaining at 4 h / remaining at 8 h / remaining at 24 h: recombinant neprilysin; for remaining at 0.5 h: t = 30 min; for remaining at 1 h: t = 1 hr; for remaining at 2 h: t = 2 hr; for remaining at 4 h: t = 4 hr; for remaining at 8 h: t = 8 hr; for remaining at 24 h: t = 24 hr, read-out: Percentage remaining peptide (AUC at specified time-point by RP-HPLC) upon incubation with neprilysin, t = 24 hr
T2 construct: purchased R&D Systems 1182-ZNC-010
T2 sequence (P08473 whole entry): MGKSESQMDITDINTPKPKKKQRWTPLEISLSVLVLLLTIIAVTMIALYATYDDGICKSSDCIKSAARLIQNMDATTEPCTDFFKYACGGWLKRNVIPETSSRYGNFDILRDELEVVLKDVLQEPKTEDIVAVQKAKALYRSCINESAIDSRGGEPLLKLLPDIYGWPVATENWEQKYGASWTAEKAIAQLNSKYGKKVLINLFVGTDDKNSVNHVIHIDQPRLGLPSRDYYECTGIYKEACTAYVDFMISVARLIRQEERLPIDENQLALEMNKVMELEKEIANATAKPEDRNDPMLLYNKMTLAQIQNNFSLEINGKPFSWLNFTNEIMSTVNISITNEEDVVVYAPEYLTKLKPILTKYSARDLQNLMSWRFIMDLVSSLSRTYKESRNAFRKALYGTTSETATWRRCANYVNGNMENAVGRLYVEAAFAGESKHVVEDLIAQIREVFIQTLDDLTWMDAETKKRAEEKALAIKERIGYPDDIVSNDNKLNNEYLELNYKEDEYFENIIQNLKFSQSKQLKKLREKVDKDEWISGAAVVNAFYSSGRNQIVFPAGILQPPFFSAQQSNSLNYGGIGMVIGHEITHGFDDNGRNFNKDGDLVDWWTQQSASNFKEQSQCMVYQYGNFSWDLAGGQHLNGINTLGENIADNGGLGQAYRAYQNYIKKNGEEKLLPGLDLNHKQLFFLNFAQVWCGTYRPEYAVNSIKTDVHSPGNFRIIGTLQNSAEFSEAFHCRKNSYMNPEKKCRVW
Description: Ratio enzyme (units):peptide (μmoles)˜1:33. […] Ratio enzyme (units):peptide (μmoles)˜1:2.5.
15 μL aliquots (˜15 μg initial peptide) of the peptide-enzyme mixture were periodically withdrawn (t=0, 30 mins, 1 hr, 2 hr, 4 hr, 8 hr, 24 hr) and quenched immediately by addition to an equal volume (15 μL) of 5% TFA (v/v) in 1:1 water/acetonitrile to arrest proteolytic activity. 20 μL aliquots (˜10 μg initial peptide) were analyzed by LC/MS and/or analytical RP-HPLC as follows: LC/MS method: Agilent Polaris C8-A column (4.6×100 mm, 3 micron) eluted with a linear binary gradient of 10-90% MeCN (0.1% TFA v/v) in water (0.1% TFA v/v) over 30 mins at 1.5 mL min-1 at ambient temperature with detection by both UV absorption at 210 nm and ionization using a Waters 3100 mass detector (ESI+ mode). Peptide fragments deriving from enzymatic hydrolysis were identified by molecular weight, allowing location of the site of cleavage. Analytical RP-HPLC method: Agilent Polaris C8-A column (4.6×100 mm, 3 micron) eluted with a linear binary gradient of 10-90% MeCN (0.1% TFA v/v) in water (0.1% TFA v/v) over either 10 or 15 mins at 1.5 mL min^−1 at 40° C. with detection by UV absorption at 210 nm. Manual integration (AUC) allowed estimation of remaining intact peptide over the time course of the experiment.
25 μL aliquots (˜6 μg initial peptide) were analyzed by LC/MS and/or analytical RP-HPLC as follows: LC/MS method: Agilent Polaris C8-A column (4.6×100 mm, 3 micron) eluted with a linear binary gradient of 10-90% MeCN (0.1% TFA v/v) in water (0.1% TFA v/v) over 30 mins at 1.5 mL min^−1 at ambient temperature with detection by both UV absorption at 210 nm and ionization using a Waters 3100 mass detector (ESP mode). Peptide fragments deriving from enzymatic hydrolysis were identified by molecular weight, allowing location of the site of cleavage. Analytical RP-HPLC method: Agilent Polaris C8-A column (4.6×100 mm, 3 micron) eluted with a linear binary gradient of 10-90% MeCN (0.1% TFA v/v) in water (0.1% TFA v/v) over either 10 or 15 mins at 1.5 mL min^−1 at 40° C. with detection by UV absorption at 210 nm. Manual integration (AUC) allowed estimation of remaining intact peptide over the time course of the experiment.

trypsin = biological target: T3, trypsin (Sus scrofa, UniProt P00761); assay: Proteolytic resistance to trypsin (% remaining intact peptide, RP-HPLC AUC); format: in vitro ADME; details: pig, porcine pancreatic trypsin, 37° C., pH 7.8, read-out: Percentage remaining intact peptide (AUC by RP-HPLC) upon incubation with trypsin; for remaining at 0.5 h: t = 30 min; for remaining at 1 h: t = 1 hr; for remaining at 2 h: t = 2 hr; for remaining at 4 h: t = 4 hr; for remaining at 8 h: t = 8 hr; for remaining at 24 h: t = 24 hr
T3 construct: purchased Sigma T7409
T3 sequence (P00761 9-231): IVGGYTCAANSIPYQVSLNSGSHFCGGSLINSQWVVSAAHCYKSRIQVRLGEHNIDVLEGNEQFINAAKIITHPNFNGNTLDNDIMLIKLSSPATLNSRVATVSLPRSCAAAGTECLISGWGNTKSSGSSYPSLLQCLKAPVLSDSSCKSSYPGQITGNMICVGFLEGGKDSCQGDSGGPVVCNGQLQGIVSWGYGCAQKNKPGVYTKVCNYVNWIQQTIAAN
Description: Ratio enzyme (units):peptide (μmoles)˜1:11. […] Ratio enzyme (units):peptide (μmoles)˜1.2:1.

[2] = biological target: T4, human GLP-1 receptor (GLP-1R) (Homo sapiens, UniProt P43220); assay: cAMP assay, human GLP-1R cells; format: cell-based
T4 construct: expressed in transfected cells
T4 sequence (P43220 24-463): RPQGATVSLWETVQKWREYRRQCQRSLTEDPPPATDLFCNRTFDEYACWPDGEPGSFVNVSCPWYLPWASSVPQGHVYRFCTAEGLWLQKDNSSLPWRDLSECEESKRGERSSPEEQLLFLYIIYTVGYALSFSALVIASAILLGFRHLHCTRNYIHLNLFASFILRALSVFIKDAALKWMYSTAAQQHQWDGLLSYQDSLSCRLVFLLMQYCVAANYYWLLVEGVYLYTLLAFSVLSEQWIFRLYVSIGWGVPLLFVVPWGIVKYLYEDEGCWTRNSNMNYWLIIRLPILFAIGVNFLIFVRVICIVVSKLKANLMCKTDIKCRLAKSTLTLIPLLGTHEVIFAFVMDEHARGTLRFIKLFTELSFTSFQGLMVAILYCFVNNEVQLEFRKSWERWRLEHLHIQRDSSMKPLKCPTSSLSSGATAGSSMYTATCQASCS
Method in brief: as §1

[3] = biological target: T5, human glucagon receptor (GCGR) (Homo sapiens, UniProt P47871); assay: cAMP assay, human GCGR cells; format: cell-based; details: cAMP assay
T5 construct: expressed in transfected cells
T5 sequence (P47871 26-477): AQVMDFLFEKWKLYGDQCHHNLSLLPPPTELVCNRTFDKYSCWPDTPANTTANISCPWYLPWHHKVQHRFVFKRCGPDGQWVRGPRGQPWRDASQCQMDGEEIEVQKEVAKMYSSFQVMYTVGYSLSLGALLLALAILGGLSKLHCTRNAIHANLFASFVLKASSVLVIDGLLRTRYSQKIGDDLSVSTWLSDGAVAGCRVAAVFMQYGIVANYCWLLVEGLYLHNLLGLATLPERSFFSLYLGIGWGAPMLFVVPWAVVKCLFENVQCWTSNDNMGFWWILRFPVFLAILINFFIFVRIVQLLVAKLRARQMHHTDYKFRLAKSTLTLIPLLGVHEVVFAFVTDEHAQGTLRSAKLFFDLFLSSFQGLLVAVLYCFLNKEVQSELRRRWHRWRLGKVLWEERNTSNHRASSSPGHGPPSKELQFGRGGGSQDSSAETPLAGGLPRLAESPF
Method in brief: as §1

GLP-1R (INS1e assay) = biological target: T6, GLP-1R (INS1e assay) (Rattus norvegicus, UniProt P32301); assay: INS1e assay, cAMP activity at GLP-1R; format: cell-based; details: mono-lipidated peptides
T6 construct: endogenous in cells; host or cells: INS-1E cells
T6 sequence (P32301 22-463): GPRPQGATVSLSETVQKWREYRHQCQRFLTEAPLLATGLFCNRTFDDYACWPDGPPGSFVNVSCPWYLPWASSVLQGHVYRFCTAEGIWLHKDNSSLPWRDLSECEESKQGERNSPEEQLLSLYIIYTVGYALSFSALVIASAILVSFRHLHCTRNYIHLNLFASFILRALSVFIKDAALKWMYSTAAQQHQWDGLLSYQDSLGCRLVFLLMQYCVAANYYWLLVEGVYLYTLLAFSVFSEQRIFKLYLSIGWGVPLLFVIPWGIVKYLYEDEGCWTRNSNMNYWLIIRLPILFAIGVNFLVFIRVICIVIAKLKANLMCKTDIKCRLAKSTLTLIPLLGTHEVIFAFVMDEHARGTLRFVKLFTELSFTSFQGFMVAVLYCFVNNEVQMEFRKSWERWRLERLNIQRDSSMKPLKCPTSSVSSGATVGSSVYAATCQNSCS
Method in brief: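 It pairs cAMP-d2 acceptor with anti-cAMP cryptate donor, both prepared 1/20 in conjugate/lysis buffer, applied as a two-step protocol.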

pepsin = biological target: T7, pepsin (Sus scrofa, UniProt P00791); assay: Proteolytic resistance to pepsin (% remaining intact peptide, RP-HPLC AUC); format: in vitro ADME; details: pig, porcine pepsin, 37° C., pH 2.0, read-out: Percentage remaining intact peptide (AUC by RP-HPLC) upon incubation with pepsin; for remaining at 0.5 h: t = 30 min; for remaining at 1 h: t = 1 hr; for remaining at 2 h: t = 2 hr; for remaining at 4 h: t = 4 hr; for remaining at 8 h: t = 8 hr; for remaining at 24 h: t = 24 hr
T7 construct: purchased Sigma P7012
T7 sequence (P00791 60-385): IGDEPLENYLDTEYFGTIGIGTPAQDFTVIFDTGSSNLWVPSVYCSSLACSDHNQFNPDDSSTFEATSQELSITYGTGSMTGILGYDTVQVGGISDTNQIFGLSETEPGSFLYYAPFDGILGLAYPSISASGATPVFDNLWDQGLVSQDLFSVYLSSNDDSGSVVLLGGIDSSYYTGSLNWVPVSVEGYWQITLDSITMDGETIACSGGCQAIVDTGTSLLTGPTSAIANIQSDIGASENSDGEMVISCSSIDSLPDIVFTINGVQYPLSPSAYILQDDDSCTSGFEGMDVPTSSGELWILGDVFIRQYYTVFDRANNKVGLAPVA
Description: Lyophilized porcine […] pepsin (Sigma: P7012) was reconstituted to afford a solution of 200 μg/mL (˜500 units/mL) in assay buffer (0.1 M HCl, pH 2.0) to give the enzyme stock solution. […] Ratio enzyme (units):peptide (μmoles)˜1:6. […] Ratio enzyme (units):peptide (μmoles)˜2:1.
Lyophilized porcine […] pepsin (Sigma: P7012) was reconstituted to 200 μg/mL (˜500 units/mL) in assay buffer (1.0 M HCl, pH 2.0) to give the enzyme stock solution.

[4] = first determination (n1), read-out: Primary assay EC50 GIP-R (n1)
[5] = second determination (n2), read-out: Primary assay EC50 GIP-R (n2)
[6] = cAMP assay, first determination (n1), read-out: Primary assay EC50 GLP-1R n1
[7] = cAMP assay, second determination (n2), read-out: Primary assay EC50 GLP-1R n2
[8] = mean of n1 and n2, read-out: Mean pM GLP-1R
[9] = first determination (n1), read-out: Primary assay EC50 Gluc-R (n1)
[10] = second determination (n2), read-out: Primary assay EC50 Gluc-R (n2)
[11] = mean of n1 and n2, read-out: INS1e assay EC50 Mean pM GLP-1R
[12] = replicate n1, read-out: INS1e assay EC50 GLP-1R n1
[13] = replicate n2, read-out: INS1e assay EC50 GLP-1R n2

## CC[C@H](C)[C@H](NC(=O)[C@H](Cc1ccccc1)NC(=O)[C@H](CCC(=O)O)NC(=O)[C@H](CCCCNC(=O)COCCOCCNC(=O)COCCOCCNC(=O)CC[C@H](NC(=O)CCCCCCCCCCCCCCCCC(=O)O)C(=O)O)NC(=O)[C@H](C)NC(=O)[C@H](C)NC(=O)[C@H](CCC(=O)O)NC(=O)CNC(=O)[C@H](CCC(=O)O)NC(=O)[C@H](CC(C)C)NC(=O)[C@](C)(Cc1ccccc1)NC(=O)[C@H](CO)NC(=O)[C@](C)(CO)NC(=O)[C@@H](NC(=O)[C@H](CC(=O)O)NC(=O)[C@H](CO)NC(=O)[C@@H](NC(=O)[C@](C)(Cc1ccccc1)NC(=O)[C@H](CO)NC(=O)CNC(=O)[C@H](CCC(=O)O)NC(=O)C(C)(C)NC(=O)[C@@H](N)Cc1c[nH]cn1)[C@@H](C)O)C(C)C)C(=O)N[C@@H](C)C(=O)N[C@@](C)(Cc1ccccc1)C(=O)N[C@H](C(=O)N[C@H](C(=O)N[C@@](C)(CCCCN)C(=O)NCC(=O)NCC(N)=O)C(C)C)C(C)C [compound 48]
[1]; [4]
  EC50: ≥ 26 nM
[1]; [5]
  EC50: ≥ 26 nM
Neprilysin
  remaining at 0.5 h: 96.8%
  remaining at 1 h: 96.5%
  remaining at 2 h: 93%
  remaining at 4 h: 93.9%
  remaining at 8 h: 89.5%
  remaining at 24 h: 90%
  Percentage remaining peptide (AUC at specified time-point by RP-HPLC) upon incubation with neprilysin, t = 0: 100%
trypsin
  remaining at 0.5 h: 93%
  remaining at 1 h: 89.2%
  remaining at 2 h: 83.5%
  remaining at 4 h: 75.6%
  remaining at 8 h: 68.9%
  remaining at 24 h: 56.5%
[2]; [6]
  EC50: 3.9 pM
[2]; [7]
  EC50: 8.2 pM
[2]; [8]
  EC50: 6.1 pM
[3]; [9]
  EC50: ≥ 26 nM
[3]; [10]
  EC50: ≥ 26 nM
GLP-1R (INS1e assay); [11]
  EC50: 800 pM
GLP-1R (INS1e assay); [12]
  EC50: 729 pM
GLP-1R (INS1e assay); [13]
  EC50: 871 pM
pepsin
  remaining at 0.5 h: 89.1%
  remaining at 1 h: 80.8%
  remaining at 2 h: 71.4%
  remaining at 4 h: 60.6%
  remaining at 8 h: 45.9%
  remaining at 24 h: 9.4%

## CC[C@H](C)[C@H](NC(=O)[C@H](Cc1ccccc1)NC(=O)[C@H](CCC(=O)O)NC(=O)[C@](C)(CCCCN)NC(=O)[C@H](C)NC(=O)[C@H](C)NC(=O)[C@H](CCC(=O)O)NC(=O)CNC(=O)[C@H](CCC(=O)O)NC(=O)[C@H](CC(C)C)NC(=O)[C@](C)(Cc1ccccc1)NC(=O)[C@H](CO)NC(=O)[C@](C)(CO)NC(=O)[C@@H](NC(=O)[C@H](CC(=O)O)NC(=O)[C@H](CO)NC(=O)[C@@H](NC(=O)[C@](C)(Cc1ccccc1)NC(=O)[C@H](CO)NC(=O)CNC(=O)[C@H](CCC(=O)O)NC(=O)C(C)(C)NC(=O)[C@@H](N)Cc1c[nH]cn1)[C@@H](C)O)C(C)C)C(=O)N[C@@H](CCCCNC(=O)COCCOCCNC(=O)COCCOCCNC(=O)CC[C@H](NC(=O)CCCCCCCCCCCCCCCCC(=O)O)C(=O)O)C(=O)N[C@@H](Cc1c[nH]c2ccccc12)C(=O)N[C@H](C(=O)N[C@H](C(=O)N[C@@H](CCC(=O)O)C(=O)NCC(=O)NCC(N)=O)C(C)C)C(C)C [compound 68] (H-H[Aib]EGS[αMeF]TSDV[αMeS]S[αMeF]LEGEAA[αMeK]EFIK([AEEA-AEEA-γGlu-C18 diacid])WVVEGG-NH2; N-terminus assumed)
[1]; [4]
  EC50: ≥ 25 nM
[1]; [5]
  EC50: ≥ 25 nM
Neprilysin
  remaining at 0.5 h: 97.4%
  remaining at 1 h: 95.4%
  remaining at 2 h: 96.4%
  remaining at 4 h: 95.4%
  remaining at 8 h: 93.9%
  remaining at 24 h: 94.9%
  Percentage remaining peptide (AUC at specified time-point by RP-HPLC) upon incubation with neprilysin, t = 0: 100%
trypsin
  remaining at 0.5 h: 92.3%
  remaining at 1 h: 86.2%
  remaining at 2 h: 76.8%
  remaining at 4 h: 48.6%
  remaining at 8 h: 39.8%
  remaining at 24 h: 27.4%
[2]; [6]
  EC50: 22.1 pM
[2]; [7]
  EC50: 15.5 pM
[2]; [8]
  EC50: 18.8 pM
[3]; [9]
  EC50: ≥ 25 nM
[3]; [10]
  EC50: ≥ 25 nM
GLP-1R (INS1e assay); [11]
  EC50: 3780 pM
GLP-1R (INS1e assay); [12]
  EC50: 2690 pM
GLP-1R (INS1e assay); [13]
  EC50: 4870 pM
pepsin
  remaining at 0.5 h: 96.5%
  remaining at 1 h: 94.7%
  remaining at 2 h: 92.2%
  remaining at 4 h: 88.2%
  remaining at 8 h: 86%
  remaining at 24 h: 85.3%
